Values belong to the molecule of their own block, whether it stands above or below them.
Legend:
[1] = target: recombinant DYRK1A kinase (Homo sapiens (Human), UniProt Q13627); assay: DYRK1A kinase assay (Ser/Thr 18 peptide Z-lyte FRET); assay type: biochemical; conditions: 30 μM ATP, 1 h room temperature;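 note: Read-out is the coumarin to fluorescein emission ratio, referenced to unphosphorylated (0%) and phosphorylated (100%) Ser/Thr 18 peptide controls, values from dose-response curves by non-linear regression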
recombinant GSK3β kinase = recombinant GSK3β kinase (Homo sapiens (Human), UniProt P49841); assay: GSK3β kinase assay (Ser/Thr 09 peptide Z-lyte FRET); assay type: biochemical; conditions: 46 μM ATP, 1 h room temperature;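 note: kinase activity read as coumarin to fluorescein emission ratio, 11-point threefold dilutions from 10 µM to 0.0003 µM in duplicate, unphosphorylated and phosphorylated peptide as 0% and 100% controls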
recombinant GSK3β kinase, sequence (P49841 whole entry): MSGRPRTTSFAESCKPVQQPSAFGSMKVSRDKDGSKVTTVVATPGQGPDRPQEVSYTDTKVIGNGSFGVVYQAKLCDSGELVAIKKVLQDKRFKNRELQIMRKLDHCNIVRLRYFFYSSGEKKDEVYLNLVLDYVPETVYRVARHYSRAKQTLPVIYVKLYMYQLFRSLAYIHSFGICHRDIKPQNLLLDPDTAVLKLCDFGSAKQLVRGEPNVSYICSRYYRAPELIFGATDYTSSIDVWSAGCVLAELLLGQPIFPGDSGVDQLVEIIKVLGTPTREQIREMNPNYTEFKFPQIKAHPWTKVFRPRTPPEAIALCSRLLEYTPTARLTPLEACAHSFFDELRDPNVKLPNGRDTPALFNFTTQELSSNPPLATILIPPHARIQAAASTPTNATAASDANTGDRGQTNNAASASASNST

[2] = tested on: α-smooth muscle actin (αSMA) positive LL29 cells; assay: Inhibition of fibrotic process: αSMA in TGF-β1 treated primary human fibroblasts from IPF patients; assay type: cell-based; conditions: Homo sapiens, Fibroblast; for EC50: 96 h, Table 8, LL29 fibroblasts from IPF patients, TGF-β1 20 ng/mL, 4 days, dose-response 10 μM to 0.94 nM; for inhibition at 10 µM: read-out: percent value in parentheses beside EC50 >10 μM;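 for all read-outs here: controls were TGF-β1 stimulated wells with DMSO vehicle (positive) and cells given DMSO alone (negative), cultured in F12 medium with 1% fetal bovine serum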
[3] = tested on: SW480 colon carcinoma cells; assay: Cell viability assay (CellTiter-Glo); assay type: cell-based, human; conditions: Homo sapiens; for EC50: 96 h, SW480 cells, CellTiter-Glo, four days incubation
IL-6 = IL-6 inhibition in LPS-stimulated human peripheral blood mononuclear cells (HTRF); assay type: cell-based; conditions: Homo sapiens, PBMC; for inhibition at 10 µM: read-out: percent value in parentheses beside EC50 >10 μM; for EC50: Table 9, huPBMCs, LPS 50 ng/mL, 22 hours, dose-response starting from 10 μM;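 for all read-outs here: IL-6 detected by HTRF with an XL665- and Cryptate-labelled anti-IL-6 antibody pair, samples run in duplicate, EC50 obtained from a four-parameter Levenberg-Marquardt curve fit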
Experimental: After 22 hour incubation, a mixture of anti-IL6 XL665 and anti-IL-6 Cryptate diluted in reconstitution buffer (Catalog #62IL6PEC, Cisbio Inc., Bedford, Mass.) was added to each well. […] All samples were processed in duplicate. […] EC50 was determined using software generated by Dotmatics Limited (Windhill Bishops Stortford Herts, UK) using the Levenberg-Marquardt 4 parameter fitting procedure with finite different gradients.

[4] = tested on: Tau phosphorylation at Ser396 (pSer396); assay: Tau phosphorylation assay (pSer396 ELISA / western blot) in SH-SY5Y cells; assay type: cell-based, human; conditions: Homo sapiens; SH-SY5Y cells, overnight (16-18 h) exposure; read-out: pSer396 Tau EC50;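 note: EC50 for reduction of Tau pSer396 in lysed cells, measured by colorimetric ELISA or chemiluminescent western blot, both using the same pSer396 antibody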
[5] = tested on: Wnt pathway (Sp5-Luc reporter, TCF/LEF binding sites) in SW480 colon carcinoma cells; assay: Screening assay for Wnt activity: Sp5-Luc reporter gene assay; assay type: cell-based, human; conditions: Homo sapiens; Sp5-Luc reporter, SW480 cells, 36 to 48 hours;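 note: firefly luciferase luminescence read in stably transduced SW480 cells carrying the Sp5 promoter reporter with eight TCF/LEF sites, compounds given in 0.1% DMSO final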
Experimental: The screening assay for Wnt activity is described as follows.
Following incubation, 15 μl of BriteLite Plus luminescence reagent (Perkin Elmer) was added to each well of the 384-well assay plates. The plates were placed on an orbital shaker for 2 min and then luminescence was quantified using the Envision (Perkin Elmer) plate reader.

Compound: CN1CCC(F)(C(=O)Nc2cc3cc(-c4cnn(C)c4)ccc3cn2)CC1 [Compound 92, 4-Fluoro-1-methyl-N-(6-(1-methyl-1H-pyrazol-4-yl)isoquinolin-3-yl) piperidine-4-carboxamide]
EC50 [1]: 6.5 nM | EC50 (recombinant GSK3β kinase): 361 nM | EC50 [2]: > 10000 nM | inhibition at 10 µM [2]: 16.7% | EC50 [3]: 983 nM | inhibition at 10 µM (IL-6): 33% | EC50 (IL-6): > 10000 nM | EC50 [4]: 3900 nM | EC50 [5]: 1600 nM

EC50 [1]: 7.1 nM | EC50 (recombinant GSK3β kinase): 350 nM | EC50 [3]: > 10000 nM | EC50 (IL-6): > 10000 nM | EC50 [4]: 2000 nM | EC50 [5]: > 10000 nM
Compound: CC(C)CN1CCC(F)(C(=O)Nc2cc3cc(-c4cnn(C)c4)ccc3cn2)CC1 [Compound 96, 4-Fluoro-1-isobutyl-N-(6-(1-methyl-1H-pyrazol-4-yl)isoquinolin-3-yl) piperidine-4-carboxamide]
EC50 [2]: 677 nM | inhibition at 10 µM (IL-6): 5.8%

Compound: Cn1cc(-c2ccc3cnc(NC(=O)[C@H]4CCCNC4)cc3c2)cn1 [Compound 110, (S)—N-(6-(1-Methyl-1H-pyrazol-4-yl)isoquinolin-3-yl)piperidine-3-carboxamide]
EC50 [1]: 4.7 nM | EC50 (recombinant GSK3β kinase): 34 nM | EC50 [2]: 286 nM | EC50 [3]: 1050 nM | EC50 (IL-6): 484 nM | EC50 [4]: 636 nM | EC50 [5]: 1100 nM

Compound: CC(C)CN1CCC[C@H](C(=O)Nc2cc3cc(-c4cnn(C)c4)ccc3cn2)C1 [Compound 112, (S)-1-Isobutyl-N-(6-(1-methyl-1H-pyrazol-4-yl)isoquinolin-3-yl)piperidine-3-carboxamide]
EC50 [1]: 20.6 nM | EC50 (recombinant GSK3β kinase): 292 nM | EC50 [2]: 546 nM | EC50 [3]: 6420 nM | EC50 (IL-6): 2990 nM | EC50 [4]: 1750 nM | EC50 [5]: 3200 nM

EC50 [1]: 24.1 nM | EC50 (recombinant GSK3β kinase): 586 nM | EC50 [3]: > 10000 nM | EC50 (IL-6): 1920 nM | EC50 [4]: 3800 nM | EC50 [5]: > 10000 nM
Compound: CC(C)CN1CCC[C@@H](C(=O)Nc2cc3cc(-c4cnn(C)c4)ccc3cn2)C1 [Compound 113, (R)-1-Isobutyl-N-(6-(1-methyl-1H-pyrazol-4-yl)isoquinolin-3-yl)piperidine-3-carboxamide]
EC50 [2]: 2110 nM

Compound: Cn1cc(-c2ccc3cnc(NC(=O)C4CCOCC4)cc3c2)cn1 [Compound 114, N-(6-(1-Methyl-1H-pyrazol-4-yl)isoquinolin-3-yl)tetrahydro-2H-pyran-4-carboxamide]
EC50 [1]: 1.9 nM | EC50 (recombinant GSK3β kinase): 32 nM | EC50 [2]: 735 nM | EC50 [3]: 3890 nM | EC50 (IL-6): 1140 nM | EC50 [4]: 286 nM | EC50 [5]: 835 nM

Compound: Cn1cc(-c2ccc3cnc(NC(=O)CN4CCC(F)CC4)cc3c2)cn1 [Compound 116, 2-(4-Fluoropiperidin-1-yl)-N-(6-(1-methyl-1H-pyrazol-4-yl)isoquinolin-3-yl)acetamide]
EC50 [1]: 4.3 nM | EC50 (recombinant GSK3β kinase): 24 nM | EC50 [2]: 830 nM | EC50 [3]: 6500 nM | EC50 (IL-6): 1330 nM | EC50 [4]: 870 nM | EC50 [5]: 7100 nM

Compound: CN1CCN(CC(=O)Nc2cc3cc(-c4cnn(C)c4)ccc3cn2)CC1 [Compound 118, N-(6-(1-Methyl-1H-pyrazol-4-yl)isoquinolin-3-yl)-2-(4-methylpiperazin-1-yl)acetamide]
EC50 [1]: 9.6 nM | EC50 (recombinant GSK3β kinase): 79 nM | EC50 [2]: 821 nM | EC50 [3]: 5940 nM | EC50 (IL-6): 3610 nM | EC50 [4]: 1200 nM | EC50 [5]: 3600 nM

Compound: Cc1ncc(-c2ccc3cnc(NC(=O)C4CC4)cc3c2)n1C [Compound 119, N-(6-(1,2-Dimethyl-1H-imidazol-5-yl)isoquinolin-3-yl) cyclopropanecarboxamide]
EC50 [1]: 2.9 nM | EC50 (recombinant GSK3β kinase): 7 nM | EC50 [2]: 1410 nM | EC50 [3]: 525 nM | EC50 (IL-6): 1200 nM | EC50 [4]: 418 nM | EC50 [5]: 1060 nM

Compound: Cc1ncc(-c2ccc3cnc(NC(=O)C4CCC(F)(F)CC4)cc3c2)n1C [Compound 121, N-(6-(1,2-Dimethyl-1H-imidazol-5-yl)isoquinolin-3-yl)-4,4-difluorocyclohexanecarboxamide]
EC50 [1]: 3.4 nM | EC50 (recombinant GSK3β kinase): 53 nM | EC50 [2]: 1080 nM | EC50 [3]: 4310 nM | EC50 (IL-6): 3650 nM | EC50 [4]: 1030 nM | EC50 [5]: 3500 nM

EC50 [1]: 28.6 nM | EC50 (recombinant GSK3β kinase): 265 nM | EC50 [3]: > 10000 nM | EC50 (IL-6): 9980 nM | EC50 [4]: 4220 nM | EC50 [5]: > 10000 nM
Compound: Cc1ncc(-c2ccc3cnc(NC(=O)[C@@H]4CCCO4)cc3c2)n1C [Compound 188, (S)—N-(6-(1,2-Dimethyl-1H-imidazol-5-yl)isoquinolin-3-yl)tetrahydrofuran-2-carboxamide]
EC50 [2]: > 10000 nM | inhibition at 10 µM [2]: 12.4%

EC50 [1]: 348 nM | EC50 (recombinant GSK3β kinase): > 10000 nM | EC50 [3]: 8750 nM | EC50 (IL-6): > 10000 nM | EC50 [4]: > 10000 nM | EC50 [5]: > 10000 nM
Compound: CN1CCC(C(=O)Nc2cc3cc(-c4ccn(C)n4)ccc3cn2)CC1 [Compound 264, 1-Methyl-N-(6-(1-methyl-1H-pyrazol-3-yl)isoquinolin-3-yl)piperidine-4-carboxamide]
EC50 [2]: > 10000 nM | inhibition at 10 µM [2]: 11.7% | inhibition at 10 µM (IL-6): 4%

Compound: O=C(Nc1cc2cc(-c3cnc4n3CCNC4)ccc2cn1)C1CC1 [Compound 265, N-(6-(5,6,7,8-Tetrahydroimidazo[1,2-a]pyrazin-3-yl)isoquinolin-3-yl) cyclopropanecarboxamide]
EC50 [1]: 3.7 nM | EC50 (recombinant GSK3β kinase): 7 nM | EC50 [2]: 2560 nM | EC50 [3]: 4350 nM | EC50 (IL-6): 3000 nM | EC50 [4]: 656 nM | EC50 [5]: 1240 nM

Compound: CN1CCn2c(-c3ccc4cnc(NC(=O)C5CC5)cc4c3)cnc2C1 [Compound 266, N-(6-(7-Methyl-5,6,7,8-tetrahydroimidazo[1,2-a]pyrazin-3-yl)isoquinolin-3-yl)cyclopropanecarboxamide]
EC50 [1]: 17.4 nM | EC50 (recombinant GSK3β kinase): 38 nM | EC50 [2]: 697 nM | EC50 [3]: 6320 nM | EC50 (IL-6): 1930 nM | EC50 [4]: 1200 nM | EC50 [5]: 2440 nM

Compound: CN1CCn2ncc(-c3ccc4cnc(NC(=O)C5CC(F)(F)C5)cc4c3)c2C1 [Compound 267, 3,3-Difluoro-N-(6-(5-methyl-4,5,6,7-tetrahydropyrazolo[1,5-a]pyrazin-3-yl)isoquinolin-3-yl)cyclobutanecarboxamide]
EC50 [1]: 29.4 nM | EC50 (recombinant GSK3β kinase): 39 nM | EC50 [2]: 590 nM | EC50 [3]: 2020 nM | EC50 (IL-6): 9410 nM | EC50 [4]: 555 nM | EC50 [5]: 1380 nM

Compound: Cc1ncc(-c2ccc3cnc(NC(=O)C4CC(F)(F)C4)cc3c2)n1C [Compound 268, N-(6-(1,2-Dimethyl-1H-imidazol-5-yl)isoquinolin-3-yl)-3,3-difluorocyclobutanecarboxamide]
EC50 [1]: 5.8 nM | EC50 (recombinant GSK3β kinase): 17 nM | EC50 [2]: 73 nM | EC50 [3]: 2770 nM | EC50 (IL-6): 8170 nM | EC50 [4]: 478 nM | EC50 [5]: 2070 nM

EC50 [1]: 952 nM | EC50 (recombinant GSK3β kinase): 5310 nM | EC50 [3]: > 10000 nM | EC50 (IL-6): 9980 nM | EC50 [4]: > 10000 nM | EC50 [5]: > 10000 nM
Compound: Cn1nccc1-c1ccc2cnc(NC(=O)C3CCN(CCC(F)(F)F)CC3)cc2c1 [Compound 270, N-(6-(1-Methyl-1H-pyrazol-5-yl)isoquinolin-3-yl)-1-(3,3,3-trifluoropropyl) piperidine-4-carboxamide]
EC50 [2]: > 10000 nM | inhibition at 10 µM [2]: 11.4%

Compound: CC(C)CN1CCN(CC(=O)Nc2cc3cc(-c4cnn(C)c4)ccc3cn2)CC1 [Compound 272, 2-(4-Isobutylpiperazin-1-yl)-N-[6-(1-methylpyrazol-4-yl)-3-isoquinolyl]acetamide]
EC50 [1]: 14 nM | EC50 (recombinant GSK3β kinase): 105 nM | EC50 [2]: 2540 nM | EC50 [3]: 5870 nM | EC50 (IL-6): 3100 nM | EC50 [4]: 1660 nM | EC50 [5]: 3750 nM

Compound: Cn1cc(-c2ccc3cnc(NC(=O)CN4CC(C)(C)C4)cc3c2)cn1 [Compound 273, 2-(3,3-Dimethylazetidin-1-yl)-N-[6-(1-methylpyrazol-4-yl)-3-isoquinolyl]acetamide]
EC50 [1]: 10.7 nM | EC50 (recombinant GSK3β kinase): 48 nM | EC50 [2]: 515 nM | EC50 [3]: 1180 nM | EC50 (IL-6): 842 nM | EC50 [4]: 492 nM | EC50 [5]: 1510 nM

Compound: Cn1cc(-c2ccc3cnc(NC(=O)CN4CC[C@@H](F)C4)cc3c2)cn1 [Compound 274, 2-[(3R)-3-fluoropyrrolidin-1-yl]-N-[6-(1-methylpyrazol-4-yl)-3-isoquinolyl]acetamide]
EC50 [1]: 5.9 nM | EC50 (recombinant GSK3β kinase): 25 nM | EC50 [2]: 195 nM | EC50 [3]: 4050 nM | EC50 (IL-6): 3220 nM | EC50 [4]: 535 nM | EC50 [5]: 3720 nM

Compound: Cn1cncc1-c1ccc2cnc(NC(=O)CN3CCCCC3)cc2c1 [Compound 275, N-[6-(3-methylimidazol-4-yl)-3-isoquinolyl]-2-(1-piperidyl) acetamide]
EC50 [1]: 4.7 nM | EC50 (recombinant GSK3β kinase): 115 nM | EC50 [2]: 431 nM | EC50 [3]: 1280 nM | EC50 (IL-6): 1140 nM | EC50 [4]: 232 nM | EC50 [5]: 1920 nM

Compound: Cn1cc(-c2ccc3cnc(NC(=O)CN4CCCCC4)cc3c2)nn1 [Compound 276, N-(6-(1-methyl-1H-1,2,3-triazol-4-yl)isoquinolin-3-yl)-2-(piperidin-1-yl) acetamide]
EC50 [1]: 5.1 nM | EC50 (recombinant GSK3β kinase): 6 nM | EC50 [2]: 336 nM | EC50 [3]: > 10000 nM | inhibition at 10 µM ([3]; SW480, read-out: percent inhibition at 10 μM): 29.6% | EC50 (IL-6): 2920 nM | EC50 [4]: 150 nM | EC50 [5]: 5180 nM
